Experimental data taken from paper PMC5336394 (Structure (London, England : 1993), 2017).

System: CypA
Assay: HA peptide isomerization
Assay type: biochemical
Conditions: Pro2 of the HA peptide

YPTDVPDYA [HA]
isomerization at Pro2: not isomerized by CypA
